Data published in patent US9199940B2, “Crystalline forms and processes for the preparation of phenyl-pyrazoles useful as modulators of the 5-HT2A serotonin receptor” (Arena Pharmaceuticals, Inc., priority 2006, dated 2015).

Assay: dynamic vapor sorption (DVS) scan of crystalline forms
Format: physicochemical
Conditions: up to 95% relative humidity
Text: FIG. 4 depicts a dynamic vapor sorption (DVS) scan for crystalline Form I of Compound 7 of the invention (VTI dynamic vapor sorption analyzer).
FIG. 8 depicts a dynamic vapor sorption (DVS) scan for crystalline Form I Compound 9 of the invention (VTI dynamic vapor sorption analyzer).

**Q.** With `COc1cccc(C(=O)Nc2ccc(OCCN3CCOCC3)c(-c3ccnn3C)c2)c1` [Compound 7 Form I, 4-(2-(4-(3-methoxybenzamido)-2-(1-methyl-1H-pyrazol-5-yl)phenoxy)ethyl)morpholin-4-ium chloride] as the molecule, how does the DVS hygroscopicity read?
**A.** The DVS hygroscopicity was “FIG. 4: Non-hygroscopic;”.
